Structures can show the parent of a compound that is named as a salt.
Molecular target: recombinant human AMCase (Homo sapiens, UniProt Q9BZP6)
Assay: Human AMCase Activity Assay
Type: biochemical
Details: recombinant hAMCase, 4-methylumbelliferyl chitobioside substrate, citrate buffer pH 5.2, 37° C., 60 minutes; read-out: Activity (IC50 value key)
Protocol: Human AMCase Activity Assay
The assay was run in the 96-well plate format, each reaction in the total volume of 100 μl. 4-Methylumbelliferyl B-D-N,N′ diacetylchitobioside hydrate was used as a substrate for the enzyme. Upon hydrolysis by AMCase, the substrate releases 4-methylumbelliferyl (4MU), when ionized in basic pH, emits fluorescence of 460 nm.
Briefly, 40 μl of a substrate was added to each well, followed by 10 μl of compound dilution and 50 μl of hAMCase recombinant enzyme solution. The reaction was carried out in citrate buffer, pH 5.2, in the dark, at 37° C. for 60 minutes with shaking.

Sequence of recombinant human AMCase (Q9BZP6 22-476): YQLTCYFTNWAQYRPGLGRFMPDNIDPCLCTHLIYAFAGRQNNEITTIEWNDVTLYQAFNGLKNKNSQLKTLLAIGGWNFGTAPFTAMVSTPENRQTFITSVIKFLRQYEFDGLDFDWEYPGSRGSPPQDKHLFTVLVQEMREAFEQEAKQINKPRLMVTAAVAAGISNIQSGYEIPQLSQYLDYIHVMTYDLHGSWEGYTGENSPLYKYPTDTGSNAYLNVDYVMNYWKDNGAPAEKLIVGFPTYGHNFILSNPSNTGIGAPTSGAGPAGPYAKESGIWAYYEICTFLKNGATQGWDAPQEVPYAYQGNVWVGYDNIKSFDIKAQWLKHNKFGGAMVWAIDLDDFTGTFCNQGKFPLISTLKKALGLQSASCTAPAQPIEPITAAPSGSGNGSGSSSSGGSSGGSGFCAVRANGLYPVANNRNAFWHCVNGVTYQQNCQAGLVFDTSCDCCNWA

COc1ccc(CNC(=O)C2CCN(c3nc(N)n[nH]3)CC2)c(OC)c1 [Example 201, 1-(3-amino-1H-1,2,4-triazol-5-yl)-N-(2,4-dimethoxybenzyl)piperidine-4-carboxamide]
IC50: > 100 µM

Nc1n[nH]c(N2CCC(NCCc3ccc(Cl)cc3)CC2)n1 [Example 88, 1-(3-amino-1H-1,2,4-triazol-5-yl)-N-(4-chlorophenethyl)piperidin-4-amine]
IC50: 1 to 10 µM

Cc1ccc(C)c(OC(C)C(=O)N2CCN(c3nc(N)n[nH]3)CC2)c1 (stereo not drawn) [Example 34, 1-(4-(3-amino-1H-1,2,4-triazol-5-yl)piperazin-1-yl)-2-(2,5-dimethylphenoxy)propan-1-one]
IC50: > 100 µM

Nc1n[nH]c(N2CCN(C(=O)c3cc4ccccc4o3)CC2)n1 [Example 48, (4-(3-amino-1H-1,2,4-triazol-5-yl)piperazin-1-yl)(benzofuran-2-yl)methanone]
IC50: > 100 µM

Nc1n[nH]c(N2CCC(CNS(=O)(=O)c3ccc(Br)cc3)CC2)n1 [Example 12, N-((1-(3-amino-1H-1,2,4-triazol-5-yl)piperidin-4-yl)methyl)-4-bromobenzenesulfonamide]
IC50: > 100 µM

C[C@@H](c1ccccc1)N(CCc1ccc(Cl)cc1)C1CCN(c2nc(N)n[nH]2)CC1 [Example 103, (S)-1-(3-amino-1H-1,2,4-triazol-5-yl)-N-(4-chlorophenethyl)-N-(1-phenylethyl) piperidin-4-amine]
IC50: 0.1 to 1 µM

CN(Cc1ccc(Cl)cc1)C(=O)C1(C)CCN(c2nc(N)n[nH]2)CC1 [Example 91, 1-(3-amino-1H-1,2,4-triazol-5-yl)-N-(4-chlorobenzyl)-N,4-dimethyl piperidine-4-carboxamide]
IC50: > 100 µM

CC(CN(C)C1CCN(c2nc(N)n[nH]2)CC1)c1ccc(Cl)cc1 (stereo not drawn) [Example 140, 1-(3-amino-1H-1,2,4-triazol-5-yl)-N-(2-(4-chlorophenyl)propyl)-N-methylpiperidin-4-amine dihydrochloride]
IC50: 10 to 100 µM

Nc1n[nH]c(N2CCN(CCOc3ccc4[nH]ccc4c3)CC2)n1 [Example 82, 5-(4-(2-((1H-indol-5-yl)oxy)ethyl)piperazin-1-yl)-1H-1,2,4-triazol-3-amine]
IC50: > 100 µM

CCCC1(NCCc2ccc(Br)cc2)CCN(c2nc(N)n[nH]2)CC1 [Example 247, 1-(3-amino-1H-1,2,4-triazol-5-yl)-N-(4-bromophenethyl)1-4-propyl piperidin-4-amine, dihydrochloride]
IC50: 1 to 10 µM

Nc1n[nH]c(N2CCN(CCCc3ccc(C(F)(F)F)cc3)C(CCCO)C2)n1 (stereo not drawn) [Example 223, 3-(4-(3-amino-1H-1,2,4-triazol-5-yl)-1-(3-(4-(trifluoromethyl)phenyl)propyl)piperazin-2-yl)propan-1-ol]
IC50: 1 to 10 µM

Nc1n[nH]c(N2CCN(CCO)CC2)n1 [Example 77, 2-(4-(3-amino-1H-1,2,4-triazol-5-yl)piperazin-1-yl)ethanol]
IC50: > 100 µM

CCOc1ccc(CN2CCN(c3nc(N)n[nH]3)CC2)cc1 [Example 3, 5-(4-(4-ethoxybenzyl)piperazin-1-yl)-1H-1,2,4-triazol-3-amine]
IC50: > 100 µM

CC1(C(=O)NCc2ccc(Cl)cc2)CCN(c2nc(N)n[nH]2)CC1 [Example 235, 1-(3-amino-1H-1,2,4-triazol-5-yl)-N-(4-chlorobenzyl)-4-methylpiperidine-4-carboxamide]
IC50: > 100 µM

C[C@H](c1ccccc1)N(CCc1ccc(Cl)cc1)C1CCN(c2nc(N)n[nH]2)CC1 [Example 118, (R)-1-(3-amino-1H-1,2,4-triazol-5-yl)-N-(4-chlorophenethyl)-N-(1-phenylethyl)piperidin-4-amine]
IC50: < 0.1 µM

Nc1n[nH]c(N2CCC(N(CCc3ccc(Br)cc3)Cc3ccccc3)CC2)n1 [Example 146, 1-(3-amino-1H-1,2,4-triazol-5-yl)-N-benzyl-N-(4-bromophenethyl)piperidin-4-amine]
IC50: < 0.1 µM

Nc1n[nH]c(N2CCC(N(CCc3ccc(Cl)cc3)Cc3ccc(C(F)(F)F)cc3)CC2)n1 [Example 104, 1-(3-amino-1H-1,2,4-triazol-5-yl)-N-(4-chlorophenethyl)-N-(4-(trifluoromethyl)benzyl)piperidin-4-amine]
IC50: < 0.1 µM

Nc1n[nH]c(N2CCC(C(=O)NCc3cccc(F)c3)CC2)n1 [Example 196, 1-(3-amino-1H-1,2,4-triazol-5-yl)-N-(3-fluorobenzyl)piperidine-4-carboxamide]
IC50: > 100 µM

Nc1nc(N2CCC(N(CCc3ccc(Cl)cc3)Cc3ccc(F)cc3Cl)CC2)n[nH]1 [Example 145, 1-(3-amino-1H-1,2,4-triazol-5-yl)-N-(2-chloro-4-fluorobenzyl)-N-(4-chlorophenethyl)piperidin-4-amine]
IC50: < 0.1 µM

CN(CCc1ccc(Cl)cc1)C1(CCO)CCN(c2nc(N)n[nH]2)CC1 [Example 228, 2-(1-(3-amino-1H-1,2,4-triazol-5-yl)-4-((4-chlorophenethyl)(methyl)amino)piperidin-4-yl)ethanol]
IC50: 0.1 to 1 µM

CC(C)c1ccccc1OCCN1CCN(c2nc(N)n[nH]2)CC1 [Example 84, 5-(4-(2-(2-isopropylphenoxy)ethyl)piperazin-1-yl)-1H-1,2,4-triazol-3-amine]
IC50: 10 to 100 µM

CCC(CN1CCN(c2nc(N)n[nH]2)CC1)Oc1ccc(Cl)cc1 (stereo not drawn) [Example 216, 5-(4-(2-(4-chlorophenoxy)butyl)piperazin-1-yl)-1H-1,2,4-triazol-3-aminedihydrochloride]
IC50: 1 to 10 µM

CC1CN(c2nc(N)n[nH]2)CCC1NS(=O)(=O)Cc1ccc(Br)cc1 (stereo not drawn) [Example 244, N-(1-(3-amino-1H-1,2,4-triazol-5-yl)-3-methylpiperidin-4-yl)-1-(4-bromophenyl)methanesulfonamide]
IC50: 1 to 10 µM

CN(C)C(Cc1ccc(Cl)cc1Cl)C(=O)N1CCN(c2nc(N)n[nH]2)CC1 (stereo not drawn) [Example 240, 1-(4-(3-amino-1H-1,2,4-triazol-5-yl)piperazin-1-yl)-3-(2,4-dichlorophenyl)-2-(dimethylamino)propan-1-one]
IC50: > 100 µM

Nc1n[nH]c(N2CCC(CNCc3ccc(Br)cc3)CC2)n1 [Example 254, 5-(4-(((4-bromobenzyl)amino)methyl)piperidin-1-yl)-1H-1,2,4-triazol-3-amine]
IC50: > 100 µM

Nc1n[nH]c(N2CCC(N(CCc3ccc(Cl)cc3)Cc3cnc4ccccc4n3)CC2)n1 [Example 116, 1-(3-amino-1H-1,2,4-triazol-5-yl)-N-(4-chlorophenethyl)-N-(quinoxalin-2-ylmethyl) piperidin-4-amine dihydrochloride]
IC50: 0.1 to 1 µM

Nc1n[nH]c(N2CCC(CNCc3ccc(Cl)c(Cl)c3)CC2)n1 [Example 252, 5-(4-(((3,4-dichlorobenzyl)amino)methyl)piperidin-1-yl)-1H-1,2,4-triazol-3-amine dihydrochloride]
IC50: > 100 µM

Nc1n[nH]c(N2CCC(C(=O)NCc3ccc(F)c(F)c3)CC2)n1 [Example 199, 1-(3-amino-1H-1,2,4-triazol-5-yl)-N-(3,4-difluorobenzyl)piperidine-4-carboxamide]
IC50: > 100 µM

Nc1n[nH]c(N2CCC(C(=O)NCc3ccccc3Br)CC2)n1 [Example 53, 1-(3-amino-1H-1,2,4-triazol-5-yl)-N-(2-bromobenzyl)piperidine-4-carboxamide]
IC50: > 100 µM

Cc1ccc(CN(CCc2ccc(Cl)cc2)C2CCN(c3nc(N)n[nH]3)CC2)cc1 [Example 102, 1-(3-amino-1H-1,2,4-triazol-5-yl)-N-(4-chlorophenethyl)-N-(4-methylbenzyl) piperidin-4-amine]
IC50: < 0.1 µM

Nc1n[nH]c(N2CCN(C(=O)[C@H](O)Cc3ccc(Cl)cc3)CC2)n1 [Example 72, (R)-1-(4-(3-amino-1H-1,2,4-triazol-5-yl)piperazin-1-yl)-3-(4-chlorophenyl)-2-hydroxypropan-1-one]
IC50: > 100 µM

CS(=O)(=O)c1ccc(-c2noc(C3CCN(c4nc(N)n[nH]4)CC3)n2)cc1 [Example 42, 5-(4-(3-(4-(methylsulfonyl)phenyl)-1,2,4-oxadiazol-5-yl)piperidin-1-yl)-1H-1,2,4-triazol-3-amine]
IC50: > 100 µM

CC(CNC1CCN(c2nc(N)n[nH]2)CC1)c1ccc(Cl)cc1 (stereo not drawn) [Example 147, 1-(3-amino-1H-1,2,4-triazol-5-yl)-N-(2-(4-chlorophenyl)propyl)piperidin-4-aminedihydrochloride]
IC50: 10 to 100 µM

Nc1n[nH]c(N2CCN(CCOc3ccccc3C(F)(F)F)CC2)n1 [Example 193, 5-(4-(2-(2-(trifluoromethyl)-phenoxy)ethyl)piperazin-1-yl)-1H-1,2,4-triazol-3-amine]
IC50: > 100 µM

Nc1n[nH]c(N2CCC(NC(=O)Nc3cc(Cl)c(Cl)cc3Cl)CC2)n1 [Example 217, 1-(1-(3-amino-1H-1,2,4-triazol-5-yl)piperidin-4-yl)-3-(2,4,5-trichlorophenyl)urea]
IC50: > 100 µM

Cc1ccccc1CN(CCc1ccc(Cl)cc1)C1CCN(c2nc(N)n[nH]2)CC1 [Example 125, 1-(3-amino-1H-1,2,4-triazol-5-yl)-N-(4-chlorophenethyl)-N-(2-methylbenzyl)piperidin-4-amine]
IC50: < 0.1 µM

C[C@@H](CN1CCN(c2nc(N)n[nH]2)CC1)Oc1ccc(Cl)cc1 [Example 65, (S)-5-(4-(2-(4-chlorophenoxy)propyl)piperazin-1-yl)-1H-1,2,4-triazol-3-amine]
IC50: 10 to 100 µM

Nc1n[nH]c(N2CCN(C(CCc3ccc(Br)cc3)Cc3ccccc3)CC2)n1 (stereo not drawn) [Example 257, 5-(4-(4-(4-bromophenyl)-1-phenylbutan-2-yl)piperazin-1-yl)-1H-1,2,4-triazol-3-amine trifluoroacetate]
IC50: 0.1 to 1 µM

CCC(Cc1ccc(Cl)cc1)N(C)C1CCN(c2nc(N)n[nH]2)CC1 (stereo not drawn) [Example 160, 1-(3-amino-1H-1,2,4-triazol-5-yl)-N-(1-(4-chlorophenyl)butan-2-yl)-N-methylpiperidin-4-amine]
IC50: 1 to 10 µM

— US10214531B2 (Institute for Drug Discovery, LLC, priority 2013, dated 2019)
